Measurements published in patent US20040110731A1, “Photodynamic therapy for the treatment of non-melanoma skin cancer” (priority 2002, published 2004).

Columns and labels:
[1] = test system: non-melanoma skin cancers; conditions: cited from earlier work
[2] = test system: multiple non-melanoma skin tumors; test: Verteporfin PDT in patients, visual assessment of treatment sites for clinical complete response (tumor free); type: in vivo, human; conditions: for Clinical Complete Response (percentage of treatment sites judged free of tumors): 14 mg/m^2 BPD-MA IV
Procedure: (§1) Visudyne^1 was diluted to 30 ml with 5% dextrose in water. This solution was then administered intravenously by a ten minute infusion to fifty-four patients having multiple non-melanoma skin tumors. The final concentration of BPD-MA administered was 14 mg per m^2 of body surface area. The body surface area was calculated by taking the square root of the […] of (height (cm)×weight (kg))÷3600. ^1 available from Movartis Opthalmics, Duluth, Ga. 30097, USA.
(§2) One to three hours after the start of drug infusion the patients either had their tumors treated with a light dose of 60 or 120 J/cm^2 (as comparative examples) or with a light dose of 180 J/cm^2 according to the invention. The light doses were all of red (688 nm) LED light with a fluence rate of 200 mW/cm^2. A total of 421 tumors were treated. 194 received 60 J/cm^2, 117 received 120 J/cm^2, and 110 received 180 J/cm^2.
Tumors were examined for clinical response after 3 months.
(§3) The efficacy of the treatment and the cosmetic outcome were assessed at 6 months and 24 months from the start of treatment. As a measure of efficacy, each treatment site was visually assessed by a physician to see if it was tumor free. The percentage of treatment sites that were judged to be free of tumors is shown in Table 1 (Clinical Complete Response). The treatment sites were also visually graded by the physician to assess the Cosmetic Outcome. Each tumor site was graded as an excellent, good, satisfactory, or less than satisfactory based on the color, profile, and texture of each treated site.

[3] = Verteporfin PDT in patients, physician visual grading of cosmetic outcome of treated sites (color, profile, texture); type: in vivo, human; conditions: 14 mg/m^2 BPD-MA IV
Procedure: as §1, §2, §3

[4] = 6 months, light dose 60 J/cm^2 (comparative), 688 nm
[5] = 6 months, light dose 120 J/cm^2 (comparative), 688 nm
[6] = 6 months, light dose 180 J/cm^2, 688 nm
[7] = 24 months, light dose 60 J/cm^2 (comparative), 688 nm
[8] = 24 months, light dose 120 J/cm^2 (comparative), 688 nm
[9] = 24 months, light dose 180 J/cm^2, 688 nm

benzoporphyrin derivative monoacid A ring [Visudyne]
Clinical response ([1]; 60 J/cm^2): relatively poor clinical response
Cosmetic outcome ([1]; 180 J/cm^2): relatively poor cosmetic outcome
Cosmetic results with tumor clearing ([1]; light fluence 120 J/cm^2): good to excellent
Clinical response of tumors ([2]; 3 months, tumors on six patients of the comparative 60 J/cm^2 group): no response
Clinical Complete Response (percentage of treatment sites judged free of tumors) [2, 4]: 78.3%
Clinical Complete Response (percentage of treatment sites judged free of tumors) [2, 5]: 88.5%
Clinical Complete Response (percentage of treatment sites judged free of tumors) [2, 6]: 98.0%
Clinical Complete Response (percentage of treatment sites judged free of tumors) [2, 7]: 51.3%
Clinical Complete Response (percentage of treatment sites judged free of tumors) [2, 8]: 78.6%
Clinical Complete Response (percentage of treatment sites judged free of tumors) [2, 9]: 95.4%
Tumor Cosmetic Outcome (percentage of treatment sites judged satisfactory or better) [3, 4]: 90.6%
Tumor Cosmetic Outcome (percentage of treatment sites judged satisfactory or better) [3, 5]: 87.5%
Tumor Cosmetic Outcome (percentage of treatment sites judged satisfactory or better) [3, 6]: 64.8%
Tumor Cosmetic Outcome (percentage of treatment sites judged satisfactory or better) [3, 7]: 91.8%
Tumor Cosmetic Outcome (percentage of treatment sites judged satisfactory or better) [3, 8]: 76.4%
Tumor Cosmetic Outcome (percentage of treatment sites judged satisfactory or better) [3, 9]: 85.5%
